# Biological target: T1, D(4) dopamine receptor (Homo sapiens, UniProt P21917)
# T1 sequence (P21917 whole entry): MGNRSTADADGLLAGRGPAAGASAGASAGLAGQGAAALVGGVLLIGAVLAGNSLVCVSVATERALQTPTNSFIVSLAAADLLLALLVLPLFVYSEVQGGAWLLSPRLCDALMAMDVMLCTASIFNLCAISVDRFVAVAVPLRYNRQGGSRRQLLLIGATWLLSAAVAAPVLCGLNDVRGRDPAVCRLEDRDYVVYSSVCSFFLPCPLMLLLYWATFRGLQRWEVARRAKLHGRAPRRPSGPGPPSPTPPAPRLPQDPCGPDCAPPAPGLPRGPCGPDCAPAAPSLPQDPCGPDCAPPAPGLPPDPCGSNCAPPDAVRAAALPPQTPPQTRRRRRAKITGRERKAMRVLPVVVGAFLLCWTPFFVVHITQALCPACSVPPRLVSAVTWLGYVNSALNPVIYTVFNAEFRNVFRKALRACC
# Assay: DRUGMATRIX: Dopamine D4.2 radioligand binding (ligand: [3H] Spiperone)
# Type: cell membranes, CHO-K1, Membrane
# Settings: cho-k1; Not Active = under 50% inhibition at 10 µM
Compound,IC50,Ki
Cc1ccnc(NS(=O)(=O)c2ccc(N)cc2)n1 [SULFAMERAZINE],Not Active,
CC(C)(C)NC[C@H](O)COc1cccc2c1CCCC2=O [LEVOBUNOLOL],Not Active,
CCOc1cc(N)c(Cl)cc1C(=O)NCC1CN(Cc2ccc(F)cc2)CCO1 (stereo unspecified) [MOSAPRIDE],Not Active,
CC(=O)O[C@]1(C(C)=O)CC[C@H]2[C@@H]3C[C@H](C)C4=CC(=O)CC[C@]4(C)[C@H]3CC[C@@]21C [MEDROXYPROGESTERONE ACETATE],Not Active,
OC[C@@H](O)[C@@H](O)[C@H](O)[C@H](O)CO [MANNITOL],Not Active,
CC(Cl)(Cl)Cl [TRICHLOROETHANE],Not Active,
LEAD(IV) ACETATE,Not Active,Not Active
O=C(c1ccccc1)c1ccc2n1CCC2C(=O)O (stereo unspecified) [KETOROLAC],Not Active,

# Biological target: T2, B2 bradykinin receptor (Homo sapiens, UniProt P30411); further: in other assays of this panel Not Active means under 50% inhibition at 10 µM
# T2 sequence (P30411 whole entry): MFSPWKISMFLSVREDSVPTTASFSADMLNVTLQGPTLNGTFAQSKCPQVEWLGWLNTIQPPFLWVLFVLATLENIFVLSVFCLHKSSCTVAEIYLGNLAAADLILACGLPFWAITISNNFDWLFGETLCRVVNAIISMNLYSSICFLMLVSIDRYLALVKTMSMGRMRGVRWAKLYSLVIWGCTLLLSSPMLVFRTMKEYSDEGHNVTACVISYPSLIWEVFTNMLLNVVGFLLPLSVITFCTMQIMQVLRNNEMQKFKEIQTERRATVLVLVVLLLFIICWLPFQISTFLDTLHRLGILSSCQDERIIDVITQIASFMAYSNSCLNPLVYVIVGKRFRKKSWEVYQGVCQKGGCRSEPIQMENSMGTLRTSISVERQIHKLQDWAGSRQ
# Type: cell membranes, Membrane
# Settings: chem-1
Compound,IC50,Ki
Cc1ccnc(NS(=O)(=O)c2ccc(N)cc2)n1 [SULFAMERAZINE],Not Active,
CC(C)(C)NC[C@H](O)COc1cccc2c1CCCC2=O [LEVOBUNOLOL],Not Active,
CCOc1cc(N)c(Cl)cc1C(=O)NCC1CN(Cc2ccc(F)cc2)CCO1 (stereo unspecified) [MOSAPRIDE],Not Active,
CC(=O)O[C@]1(C(C)=O)CC[C@H]2[C@@H]3C[C@H](C)C4=CC(=O)CC[C@]4(C)[C@H]3CC[C@@]21C [MEDROXYPROGESTERONE ACETATE],Not Active,
OC[C@@H](O)[C@@H](O)[C@H](O)[C@H](O)CO [MANNITOL],Not Active,
CC(Cl)(Cl)Cl [TRICHLOROETHANE],Not Active,
LEAD(IV) ACETATE,Not Active,Not Active
O=C(c1ccccc1)c1ccc2n1CCC2C(=O)O (stereo unspecified) [KETOROLAC],Not Active,

# Biological target: T3, Type-2 angiotensin II receptor (Homo sapiens, UniProt P50052); further: in other assays of this panel Not Active means under 50% inhibition at 10 µM
# T3 sequence (P50052 whole entry): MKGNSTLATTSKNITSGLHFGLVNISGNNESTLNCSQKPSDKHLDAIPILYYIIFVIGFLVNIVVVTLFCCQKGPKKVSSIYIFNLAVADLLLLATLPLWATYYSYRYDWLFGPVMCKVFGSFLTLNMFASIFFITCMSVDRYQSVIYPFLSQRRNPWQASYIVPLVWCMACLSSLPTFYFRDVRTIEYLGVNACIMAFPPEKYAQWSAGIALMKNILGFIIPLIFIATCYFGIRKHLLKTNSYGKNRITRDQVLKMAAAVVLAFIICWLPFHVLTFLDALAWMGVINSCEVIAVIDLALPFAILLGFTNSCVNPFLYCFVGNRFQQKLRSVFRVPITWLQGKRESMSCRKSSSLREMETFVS
# Type: cell-based
# Settings: cho-k1
Compound,IC50,Ki
Cc1ccnc(NS(=O)(=O)c2ccc(N)cc2)n1 [SULFAMERAZINE],Not Active,
CC(C)(C)NC[C@H](O)COc1cccc2c1CCCC2=O [LEVOBUNOLOL],Not Active,
CCOc1cc(N)c(Cl)cc1C(=O)NCC1CN(Cc2ccc(F)cc2)CCO1 (stereo unspecified) [MOSAPRIDE],Not Active,
CC(=O)O[C@]1(C(C)=O)CC[C@H]2[C@@H]3C[C@H](C)C4=CC(=O)CC[C@]4(C)[C@H]3CC[C@@]21C [MEDROXYPROGESTERONE ACETATE],Not Active,
OC[C@@H](O)[C@@H](O)[C@H](O)[C@H](O)CO [MANNITOL],Not Active,
CC(Cl)(Cl)Cl [TRICHLOROETHANE],Not Active,
LEAD(IV) ACETATE,Not Active,Not Active
O=C(c1ccccc1)c1ccc2n1CCC2C(=O)O (stereo unspecified) [KETOROLAC],Not Active,

# System: not listed separately
# Assay: DRUGMATRIX: Phorbol Ester radioligand binding (ligand: [3H] PDBu)
# Type: cell membranes, Mus musculus, ICR, Brain, Membrane
# Settings: Not Active = under 50% inhibition at 10 µM
Compound,IC50,Ki
Cc1ccnc(NS(=O)(=O)c2ccc(N)cc2)n1 [SULFAMERAZINE],Not Active,Not Active
CC(C)(C)NC[C@H](O)COc1cccc2c1CCCC2=O [LEVOBUNOLOL],Not Active,Not Active
CCOc1cc(N)c(Cl)cc1C(=O)NCC1CN(Cc2ccc(F)cc2)CCO1 (stereo unspecified) [MOSAPRIDE],Not Active,Not Active
CC(=O)O[C@]1(C(C)=O)CC[C@H]2[C@@H]3C[C@H](C)C4=CC(=O)CC[C@]4(C)[C@H]3CC[C@@]21C [MEDROXYPROGESTERONE ACETATE],Not Active,Not Active
OC[C@@H](O)[C@@H](O)[C@H](O)[C@H](O)CO [MANNITOL],Not Active,Not Active
CC(Cl)(Cl)Cl [TRICHLOROETHANE],Not Active,Not Active
LEAD(IV) ACETATE,Not Active,Not Active
O=C(c1ccccc1)c1ccc2n1CCC2C(=O)O (stereo unspecified) [KETOROLAC],Not Active,Not Active

# System: not listed separately
# Assay: DRUGMATRIX: Glutamate, AMPA radioligand binding (ligand: [3H] AMPA)
# Type: cell membranes, Rattus norvegicus, Wistar, Cerebral cortex, Membrane
# Settings: Not Active = under 50% inhibition at 10 µM
Compound,IC50,Ki
Cc1ccnc(NS(=O)(=O)c2ccc(N)cc2)n1 [SULFAMERAZINE],Not Active,Not Active
CC(C)(C)NC[C@H](O)COc1cccc2c1CCCC2=O [LEVOBUNOLOL],Not Active,Not Active
CCOc1cc(N)c(Cl)cc1C(=O)NCC1CN(Cc2ccc(F)cc2)CCO1 (stereo unspecified) [MOSAPRIDE],Not Active,Not Active
CC(=O)O[C@]1(C(C)=O)CC[C@H]2[C@@H]3C[C@H](C)C4=CC(=O)CC[C@]4(C)[C@H]3CC[C@@]21C [MEDROXYPROGESTERONE ACETATE],Not Active,Not Active
OC[C@@H](O)[C@@H](O)[C@H](O)[C@H](O)CO [MANNITOL],Not Active,Not Active
CC(Cl)(Cl)Cl [TRICHLOROETHANE],Not Active,Not Active
LEAD(IV) ACETATE,Not Active,Not Active
O=C(c1ccccc1)c1ccc2n1CCC2C(=O)O (stereo unspecified) [KETOROLAC],Not Active,Not Active

# Biological target: T4, Cysteinyl leukotriene receptor 1 (Homo sapiens, UniProt Q9Y271); further: in other assays of this panel Not Active means under 50% inhibition at 10 µM
# T4 sequence (Q9Y271 whole entry): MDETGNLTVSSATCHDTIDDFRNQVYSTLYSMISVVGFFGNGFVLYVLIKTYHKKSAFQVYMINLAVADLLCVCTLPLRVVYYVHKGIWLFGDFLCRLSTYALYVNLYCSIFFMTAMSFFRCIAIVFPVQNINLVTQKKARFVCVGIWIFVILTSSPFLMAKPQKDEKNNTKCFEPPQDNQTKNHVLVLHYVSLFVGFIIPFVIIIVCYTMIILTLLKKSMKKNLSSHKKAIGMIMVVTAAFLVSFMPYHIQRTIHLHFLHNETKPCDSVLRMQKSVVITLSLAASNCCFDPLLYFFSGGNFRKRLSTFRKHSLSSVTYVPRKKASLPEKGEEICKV
# Type: cell membranes, CHO-K1, Membrane
# Settings: cho-k1
Compound,IC50,Ki
Cc1ccnc(NS(=O)(=O)c2ccc(N)cc2)n1 [SULFAMERAZINE],Not Active,
CC(C)(C)NC[C@H](O)COc1cccc2c1CCCC2=O [LEVOBUNOLOL],Not Active,
CCOc1cc(N)c(Cl)cc1C(=O)NCC1CN(Cc2ccc(F)cc2)CCO1 (stereo unspecified) [MOSAPRIDE],Not Active,
CC(=O)O[C@]1(C(C)=O)CC[C@H]2[C@@H]3C[C@H](C)C4=CC(=O)CC[C@]4(C)[C@H]3CC[C@@]21C [MEDROXYPROGESTERONE ACETATE],Not Active,
OC[C@@H](O)[C@@H](O)[C@H](O)[C@H](O)CO [MANNITOL],Not Active,
CC(Cl)(Cl)Cl [TRICHLOROETHANE],Not Active,
LEAD(IV) ACETATE,Not Active,Not Active
O=C(c1ccccc1)c1ccc2n1CCC2C(=O)O (stereo unspecified) [KETOROLAC],Not Active,

# Biological target: Cannabinoid receptor 1 (Homo sapiens, UniProt P21554); further: in other assays of this panel Not Active means under 50% inhibition at 10 µM
# Sequence (P21554 whole entry): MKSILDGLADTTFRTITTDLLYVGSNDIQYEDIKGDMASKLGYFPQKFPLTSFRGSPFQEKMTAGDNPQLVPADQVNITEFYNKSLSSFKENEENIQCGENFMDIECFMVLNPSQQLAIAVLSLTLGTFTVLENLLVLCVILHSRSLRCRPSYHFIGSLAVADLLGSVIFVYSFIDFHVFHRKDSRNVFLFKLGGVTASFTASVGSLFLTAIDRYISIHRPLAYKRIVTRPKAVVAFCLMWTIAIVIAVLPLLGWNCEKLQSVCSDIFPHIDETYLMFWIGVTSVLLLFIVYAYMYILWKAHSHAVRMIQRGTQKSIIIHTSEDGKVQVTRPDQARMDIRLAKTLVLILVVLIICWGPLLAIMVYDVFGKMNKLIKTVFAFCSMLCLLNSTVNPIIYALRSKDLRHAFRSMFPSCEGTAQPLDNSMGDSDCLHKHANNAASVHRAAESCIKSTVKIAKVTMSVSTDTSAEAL
# Type: cell membranes, Chem-1, Membrane
# Settings: chem-1
Compound,IC50,Ki
Cc1ccnc(NS(=O)(=O)c2ccc(N)cc2)n1 [SULFAMERAZINE],Not Active,
CC(C)(C)NC[C@H](O)COc1cccc2c1CCCC2=O [LEVOBUNOLOL],Not Active,
CCOc1cc(N)c(Cl)cc1C(=O)NCC1CN(Cc2ccc(F)cc2)CCO1 (stereo unspecified) [MOSAPRIDE],Not Active,
CC(=O)O[C@]1(C(C)=O)CC[C@H]2[C@@H]3C[C@H](C)C4=CC(=O)CC[C@]4(C)[C@H]3CC[C@@]21C [MEDROXYPROGESTERONE ACETATE],Not Active,
OC[C@@H](O)[C@@H](O)[C@H](O)[C@H](O)CO [MANNITOL],Not Active,
CC(Cl)(Cl)Cl [TRICHLOROETHANE],Not Active,
LEAD(IV) ACETATE,Not Active,Not Active
O=C(c1ccccc1)c1ccc2n1CCC2C(=O)O (stereo unspecified) [KETOROLAC],Not Active,

# Biological target: Tyrosine-protein kinase Lck (Homo sapiens, UniProt P06239)
# Sequence (P06239 whole entry): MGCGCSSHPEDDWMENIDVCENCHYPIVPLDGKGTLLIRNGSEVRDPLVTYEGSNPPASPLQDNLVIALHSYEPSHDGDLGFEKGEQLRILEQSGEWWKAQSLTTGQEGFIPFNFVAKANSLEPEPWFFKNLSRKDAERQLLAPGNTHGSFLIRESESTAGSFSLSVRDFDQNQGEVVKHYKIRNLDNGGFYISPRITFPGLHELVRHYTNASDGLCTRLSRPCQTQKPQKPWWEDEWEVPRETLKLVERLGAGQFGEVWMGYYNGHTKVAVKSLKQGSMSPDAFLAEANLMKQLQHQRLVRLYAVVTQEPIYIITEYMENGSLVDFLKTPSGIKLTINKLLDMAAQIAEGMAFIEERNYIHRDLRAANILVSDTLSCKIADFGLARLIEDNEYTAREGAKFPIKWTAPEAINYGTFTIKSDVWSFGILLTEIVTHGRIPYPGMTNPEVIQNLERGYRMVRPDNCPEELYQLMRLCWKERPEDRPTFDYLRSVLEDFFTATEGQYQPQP
# Assay: DRUGMATRIX: Protein Tyrosine Kinase, LCK enzyme inhibition (substrate: Poly(Glu:Tyr))
# Type: cell-based, Insect cells
# Settings: insect cells; Not Active = under 50% inhibition at 10 µM
Compound,IC50,Ki
Cc1ccnc(NS(=O)(=O)c2ccc(N)cc2)n1 [SULFAMERAZINE],Not Active,
CC(C)(C)NC[C@H](O)COc1cccc2c1CCCC2=O [LEVOBUNOLOL],Not Active,
CCOc1cc(N)c(Cl)cc1C(=O)NCC1CN(Cc2ccc(F)cc2)CCO1 (stereo unspecified) [MOSAPRIDE],Not Active,
CC(=O)O[C@]1(C(C)=O)CC[C@H]2[C@@H]3C[C@H](C)C4=CC(=O)CC[C@]4(C)[C@H]3CC[C@@]21C [MEDROXYPROGESTERONE ACETATE],Not Active,
OC[C@@H](O)[C@@H](O)[C@H](O)[C@H](O)CO [MANNITOL],Not Active,
CC(Cl)(Cl)Cl [TRICHLOROETHANE],Not Active,
LEAD(IV) ACETATE,Not Active,Not Active
O=C(c1ccccc1)c1ccc2n1CCC2C(=O)O (stereo unspecified) [KETOROLAC],Not Active,

# From ChEMBL document CHEMBL1909046, “DrugMatrix in vitro pharmacology data”
